Results reported in US4621057A (Noda Institute for Scientific Research, priority 1983, dated 1986).
Structures can show the parent of a compound that is named as a salt.

How the values were obtained:
Assay type in all cases: biochemical, Pseudomonas sp. No. 15-1
[1] = system: N-acetylhexosamine oxidase; assay: Activity inhibition by metalic ion or inhibitor; settings: for inhibition of enzyme activity (in words): 1.8mM metalic ion
[2] = system: N-acetylhexosamine oxidase; assay: Action and specificity for substrate; settings: in the presence of oxygen
Excerpt: As shown in the following reaction formula, the present enzyme oxidizes N-acetylhexosamine in the presence of oxygen to form N-acetylhexosaminic acid and hydrogen peroxide.

[3] = system: N-acetylhexosamine oxidase; assay: Activity stabilization by bovine serum albumin in heat treatment; settings: 1 mg/ml in potassium phosphate buffer solution of pH 6.8; 10 minutes heat treatment
Experimental: Further, in 10 minutes heat treatment at 45° C., the present enzyme is stable between pH 3 and pH 9 and loses its activity rapidly at a more acidic region and slowly at a more alkaline region. In this experiment, the hydrogen peroxide method was adopted, and the residual activity of the present enzyme subjected to 10 minutes heat treatment in a potassium phosphate buffer solution of pH 6.8 at each temperature was compared with the residual activity of the same enzyme subjected to the same treatment in a potassium phosphate buffer solution of pH 6.8 containing 1 mg/ml of bovine serum albumin.

[4] = 1.8mM metalic ion or inhibitor, tris-hydrochloric acid buffer solution of pH 7.5
[5] = tris-hydrochloric acid buffer solution of pH 7.5

| Compound | Residual activity (%) [1, 4] | inhibition of enzyme activity (in words) [1, 5] | also measured |
| --- | --- | --- | --- |
| O=S(=O)([O-])[O-].[Cu+2] [CuSO4] | 74% |  |  |
| O=S(=O)([O-])[O-].[Ni+2] [NiSO4] | 64% | considerably |  |
| O=S(=O)([O-])[O-].[Co+2] [CoSO4] | 75% |  |  |
| CCCCCCCCCCCCOS(=O)(=O)[O-].[Na+] [SDS, Sodium dodecylsulfate] | 87% |  |  |
| O=S(=O)([O-])[O-].[Zn+2] [ZnSO4] | 2% | inhibited greatly |  |
| CC(=O)N[C@H]1[C@H]([C@H](O)[C@H](O)CO)OC(O)(C(=O)O)C[C@@H]1O (stereo partly shown) [N-acetylneuraminic acid] |  |  | action of the enzyme on the substrate [2]: hardly acts or does not all act |
| HgCl2 | 17% | inhibited greatly |  |
| O=S(=O)([O-])[O-].[Mg+2] [MgSO4] | 86% |  |  |
| O=S(=O)([O-])[O-].[Cd+2] [CdSO4] | 52% | considerably |  |
| [Ca+2].[Cl-].[Cl-] [CaCl2] | 91% |  |  |
| O=C(O)c1cc[c]([Hg][Cl])cc1 [PCMB, pChloromercurybenzoate] | 67% |  |  |
| c1cnc2c(c1)ccc1cccnc12 [O'--Phenanthroline] | 81% |  |  |
| O=S(=O)([O-])[O-].[Fe+2] [FeSO4] | 15% | inhibited greatly |  |
| NC(=O)CI [ICH2 CONH2] | 90% |  |  |
| bovine serum albumin |  |  | effect of addition on enzyme activity [3]: stabilized and moreover slightly enhanced |
| O=[N+]([O-])[O-].[Ag+] [AgNO3] |  |  | Residual activity (%) ([1]; 1.8mM, Phosphate buffer solution): 5% |
| CC(=O)[O-].CC(=O)[O-].[Pb+2] [Pb(CH3 COO)2] | 42% | considerably |  |
| O=S(=O)([O-])[O-].[Mn+2] [MnSO4] | 84% |  |  |
| O=C(O)CN(CCN(CC(=O)O)CC(=O)O)CC(=O)O [EDTA, Etheylenediaminetetracetic acid sodium salt] |  |  | Residual activity (%) ([1]; pH 7.5): 87% |
